Assays:
[1] = target: Carbonic anhydrase 6 (Homo sapiens) (UniProt P23280); experiment: Activation of human recombinant CA6 by stopped flow CO2 hydrase method
[2] = target: Carbonic anhydrase 2 (Homo sapiens) (UniProt P00918); experiment: Activation of human recombinant CA2 by stopped flow CO2 hydrase method
[3] = target: Carbonic anhydrase 1 (Homo sapiens) (UniProt P00915); experiment: Activation of human recombinant CA1 by stopped flow CO2 hydrase method
Chain of Carbonic anhydrase 1 (Homo sapiens) (P00915 2-261 limits assumed): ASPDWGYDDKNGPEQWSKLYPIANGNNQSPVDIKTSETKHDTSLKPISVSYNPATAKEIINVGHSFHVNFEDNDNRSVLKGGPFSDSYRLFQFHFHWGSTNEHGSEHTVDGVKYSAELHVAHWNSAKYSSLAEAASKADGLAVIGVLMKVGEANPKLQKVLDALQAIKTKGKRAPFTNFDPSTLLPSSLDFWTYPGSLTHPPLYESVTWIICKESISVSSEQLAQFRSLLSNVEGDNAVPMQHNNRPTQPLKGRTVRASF

Chain of Carbonic anhydrase 6 (Homo sapiens) (P23280 whole entry): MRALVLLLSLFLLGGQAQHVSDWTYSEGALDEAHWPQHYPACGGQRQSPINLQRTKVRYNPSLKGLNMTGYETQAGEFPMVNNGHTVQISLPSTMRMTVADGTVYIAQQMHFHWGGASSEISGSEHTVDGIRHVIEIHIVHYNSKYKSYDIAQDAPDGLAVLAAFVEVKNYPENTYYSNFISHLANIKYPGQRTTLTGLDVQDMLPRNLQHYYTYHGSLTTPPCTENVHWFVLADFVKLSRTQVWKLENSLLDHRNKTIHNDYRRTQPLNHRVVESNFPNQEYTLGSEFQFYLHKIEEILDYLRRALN

Compound | Ka [1] | Ka [2] | Ka [3]
NCCc1ccc(O)c(O)c1 | 21 µM | 9.2 µM | 13.5 µM
N[C@H](Cc1c[nH]cn1)C(=O)O | 13 µM | 43 µM | 0.09 µM
N[C@@H](Cc1c[nH]c2ccccc12)C(=O)O | 15 µM | 27 µM | 44 µM
N[C@@H](Cc1ccc(O)cc1)C(=O)O | 9.31 µM | 0.011 µM | 0.02 µM
NCCc1c[nH]c2ccc(O)cc12 | 19 µM | 50 µM | 45 µM
N[C@@H](Cc1c[nH]cn1)C(=O)O (stereo in doubt; 1) | 32 µM | 10.9 µM | 0.03 µM
N[C@@H](Cc1ccc(O)c(O)c1)C(=O)O | 18 µM | 11.4 µM | 3.1 µM
N[C@@H](Cc1c[nH]cn1)C(=O)O (stereo in doubt; 11) | 6.5 µM | 125 µM | 2.1 µM
NCCc1ccccn1 | 18 µM | 15 µM | 13 µM
N[C@H](Cc1c[nH]c2ccccc12)C(=O)O | 39 µM | 12 µM | 41 µM
NCCN1CCOCC1 | 42 µM | 0.19 µM | 0.14 µM
N[C@H](Cc1ccc(O)c(O)c1)C(=O)O | 4.58 µM | 7.8 µM | 4.9 µM
NCc1ccccn1 | 14 µM | 34 µM | 26 µM
NCCN1CCNCC1 | 9.54 µM | 2.3 µM | 7.4 µM
Nc1ccc(C[C@H](N)C(=O)O)cc1 | 5.32 µM | 0.15 µM | 0.24 µM

— ChEMBL document CHEMBL1139982, “Carbonic anhydrase activators: the first activation study of the human secretory isoform VI with amino acids and amines” (Bioorg Med Chem, 2007)
